Laboratory results published in patent US7176244B1, “Use of 2-nitropropanol, 2-nitroethane, and 2-nitroethanol for control of microbial pathogens” (The United States of America as represented by the …, priority 2002, dated 2007).
“And” between values parts separate entries of the source, which are not always exact repeats. Equal values may be shown once. Read-outs that look alike come from different tables or passages of the source.

Legend:
[1] = test system: S. Typhimurium; assay: Specific growth rate in tryptic soy broth (A600); assay type: cell-based, Salmonella Typhimurium
Protocol: (§1) The bactericidal effect of 2-nitropropanol and nitroethanol were examined in vitro on several pathogenic bacteria including Salmonella Typhimurium, Escherichia coli O157:H7, Campylobacter jejuni, and Enterococcus faecalis. For an initial in vitro study 2-nitropropanol or nitroethanol were added to tryptic soy broth (TSB) medium in amounts to give 0, 2.5, 5, and 10 mM final concentration. Cultures were inoculated in TSB and incubated at 37° C. Specific growth rates (h^−1) were calculated by measuring optical density (A600) with spectrophotometer.

[2] = test system: E. coli O157:H7; assay: Specific growth rate in tryptic soy broth (A600); assay type: cell-based, Escherichia coli O157:H7; conditions: 2.5 mM and higher concentrations in TSB, 37° C.
Protocol: as §1

[3] = test system: E. faecalis; assay: Specific growth rate in tryptic soy broth (A600); assay type: cell-based, Enterococcus faecalis; conditions: 10 mM in TSB, 37° C.
Protocol: as §1

[4] = test system: S. Typhimurium; assay: pH effect: populations (CFU/ml) in TSB adjusted to different pH, enumerated on TSA; assay type: cell-based, Salmonella Typhimurium; conditions: 37° C.
Protocol: In order to observe the pH effect on this 2-nitropropanol, S. Typhimurium was inoculated into TSB medium adjusted to different pH (5.6, 7.2, and 8.0) with 2-nitropropanol (0, 2.5, and 10 mM final concentration) and incubated at 37° C. Populations of S. Typhimurium were determined (CFU/ml) by enumerating on tryptic soy agar (TSA) at 3, 6, and 24 h. […] However, S. Typhimurium was totally inactivated (more than 5 log reductions) at 10 mM 2-nitropropanol regardless of pH (FIG. 2).

[5] = test system: C. jejuni; assay: Bactericidal effect in Campylobacter enrichment broth, direct plating and enrichment; assay type: cell-based, Campylobacter jejuni; conditions: 48 h, pH 5.6 and 7.0, 42° C.
Protocol: The bactericidal effect against C. jejuni was also determined in vitro. Cultures were inoculated into Campylobacter enrichment broth containing 2-nitropropanol at 0, 5, 10, and 20 mM of final and incubated at 42° C.

[6] = test system: S. Typhimurium; assay type: cell-based, Salmonella Typhimurium; conditions: 10 mM
Protocol: Another experiment was conducted to evaluate the bactericidal effect of 2-nitropropanol against S. Typhimurium in buffered rumen and fecal fluid containing viable populations of endogenous anaerobes. Briefly, ruminal contents and feces were retrieved and strained. Both collected fluids were transferred to laboratory and mixed with anoxic phosphate buffer (pH 6.8). Antibiotic-marked (25 μg novobiocin/ml and 20 μg/ml of nalidixic acid resistant) (NN)S. Typhimurium cultures were inoculated into these mixtures supplemented with 2-nitropropanol at various concentrations (0, 2.5, and 10 mM of final). Those inoculated tubes were incubated at 37° C. and populations were monitored at different sampling time (0, 3, 6, and 24 h) by direct plating onto brilliant green agar (BGA) containing NN.

[7] = test system: Salmonella Typhimurium; assay type: in vivo, broiler chicks; conditions: oral gavage, 24 h, Experiment 1
Protocol: The bactericidal effect of 2-nitropropanol on Salmonella typhimurium was determined in vivo. The in vivo study was conducted using 7-day-old chick experimentally infected with S. Typhimurium. In experiment 1, chicks were orally challenged with 10^6 cfu of NN-resistant strain of S. Typhimurium. Chicks were divided into four groups; control, 1 (13 mg 2-nitropropanol/bird), 5 (65 mg 2-nitropropanol/bird) and 10×(130 mg 2-nitropropanol/bird). Treatments were administered via oral gavage. After 24 h, cecal contents were aseptically removed and subjected to bacterial analysis.

[8] = test system: Salmonella Typhimurium; assay: Cecal populations in experimentally challenged broiler chicks, experiment 2; assay type: in vivo; conditions: oral gavage
Protocol: Significant (P<0.05) log reductions occurred in group administered 1×(13 mg/bird) dose for both 24 and 48 h duration compared to untreated control.

[9] = test system: Listeria monocytogenes; assay: Bactericidal effect in Tryptic Soy Broth at different pH; assay type: cell-based; conditions: pH 5.6, 7.2, 8.2, 37° C.
Protocol: The bactericidal effect of 2-nitropropanol against Listeria monocytogenes was examined in vitro following the same assay as described in the first and second experiments of Example 1. Trials were conducted in the media at different pH (5.6, 7.2, and 8.2).

[10] = test system: Campylobacter jejuni; assay: Bactericidal effect in Bolton Broth at different pH; assay type: cell-based; conditions: sodium salt used; 0, 10, 20 mM in Bolton Broth; pH 5.6, 7.2, 8.2
Protocol: The bactericidal effect of 2-nitroethane against Campylobacter jejuni was examined in vitro following substantially the same assay as described in the first experiment of Example 1 except Bolton Broth was utilized rather than TSB. In this experiment nitroethane was added to the Bolton Broth medium in amounts to give 0, 10, and 20 mM final concentrations, and trials were conducted in the media at different pH (5.6, 7.2, and 8.2).
Because 2-nitroethane is somewhat volatile, the sodium salt of the compound was prepared and used in this experiment. The salt was prepared using the process described by Majak et al. (1986, J. Anim. Sci., 62:1072–1080, the contents of which are incorporated by reference herein).

CC(CO)[N+](=O)[O-] (stereo not shown) [2-nitropropanol]
growth of S. Typhimurium (specific growth rate) ([1]; 2.5 mM and higher concentrations in TSB, 37° C.): largely prohibited
growth of E. coli O157:H7 (specific growth rate) [2]: largely prohibited
growth of E. faecalis (specific growth rate) [3]: markedly inhibited
reduction of S. Typhimurium cells ([4]; 2.5 mM, pH 5.6, after 24 h): approximately 3 log
reduction of S. Typhimurium cells (totally inactivated) ([4]; 10 mM, regardless of pH (5.6, 7.2, 8.0)): more than 5 log
inactivation of C. jejuni cultures ([5]; 10 mM): completely inactivated
inactivation of C. jejuni cultures ([5]; 20 mM): completely inactivated
reductions of Salmonella populations compared to controls ([6]; fecal fluid in anoxic phosphate buffer pH 6.8, 37° C.): 2–3 log
reductions of Salmonella populations compared to controls ([6]; ruminal fluid in anoxic phosphate buffer pH 6.8, 37° C.): 2–3 log
Mean log CFU/g of cecal content (standard deviation) ([7]; 1× = 13 mg per bird): 3.65±2.01 log CFU/g and 3.65 (2.01) B log CFU/g
Mean log CFU/g of cecal content (standard deviation) ([7]; 5× = 65 mg per bird): 3.39±2.42 log CFU/g and 3.39 (2.42) B log CFU/g
Mean log CFU/g of cecal content (standard deviation) ([7]; 10× = 130 mg per bird): 3.47 ± 1.55 log CFU/g and 3.46 (1.55) B log CFU/g
Salmonella Typhimurium, Mean log CFU/g of cecal content (standard deviation) ([8]; 0.5× = 6.5 mg per bird, 24 h): 4.19 (2.53) A log CFU/g
Salmonella Typhimurium, Mean log CFU/g of cecal content (standard deviation) ([8]; 0.5× = 6.5 mg per bird, 48 h): 3.84 (2.69) AB log CFU/g
Salmonella Typhimurium, Mean log CFU/g of cecal content (standard deviation) ([8]; 0.5× = 6.5 mg per bird, Combined 24 and 48 h): 4.01 (2.59) A log CFU/g
Salmonella Typhimurium, Mean log CFU/g of cecal content (standard deviation) ([8]; 1× = 13 mg per bird, 24 h): 2.58 (2.10) B log CFU/g
Salmonella Typhimurium, Mean log CFU/g of cecal content (standard deviation) ([8]; 1× = 13 mg per bird, 48 h): 2.88 (2.78) B log CFU/g
Salmonella Typhimurium, Mean log CFU/g of cecal content (standard deviation) ([8]; 1× = 13 mg per bird, Combined 24 and 48 h): 2.73±2.45 log CFU/g and 2.73 (2.45) B log CFU/g
pH dependence of bactericidal effect against Listeria monocytogenes [9]: enhanced in an acidic or alkaline environment, but is somewhat reduced at neutral pH

O=[N+]([O-])CCO [2-nitroethanol]
growth of S. Typhimurium (specific growth rate) [1]: largely prohibited
growth of E. coli O157:H7 (specific growth rate) [2]: largely prohibited

CC[N+](=O)[O-] [2-nitroethane]
pH dependence of bactericidal effect against Campylobacter jejuni [10]: increased at alkaline pH
